Experimental data reported in article PMC12013366, “In vitro evaluation of the immunogenic potential of gramicidin S and its photocontrolled analogues” (RSC Medicinal Chemistry, 2025).
Non-standard residues stand in square brackets, D forms with d. Residues, ends and D or L forms follow the SMILES beside them. Orn = NCCC[C@H](N)C(=O)O

Columns and labels:
[1] = tested on: membrane-bound CALR on MDA-MB-231 cells; assay: CALR exposure, cytofluorimetric measurements; format: cell-based, human; details: concentrations higher than IC50 (16 and 32 μM), flow cytometry
Experimental: We performed fluorescence microscopy using an Alexa Fluor 647 anti-CALR antibody for quantifying the CALR exposure on the surface of cells. Confluent monolayer 4T1, HeLa, HepG2 and MDA-MB-231 cell cultures were incubated with GS and GS-derived peptides for 24 h followed by fixation, staining with the antibody and microscopic observation. Using the images, we calculated the total levels of the fluorescence signal per cell in each sample. […] While practically no enhancement in CALR exposure could be detected in the HeLa cell culture, a 4–7-fold enhancement is observed for HepG2 at 32 μM of GS, LMB002-open and LMB033-open. Then 8 and 16 μM of GS caused a 3-fold increase of CALR exposure in breast cancer cell lines 4T1 and MDA-MB-231. We noted no direct dose dependence of CALR release in our experiments. It may stem from the difference in the kinetics of CALR exposure. To examine the time dependence of the CALR exposure, cytofluorimetric experiments were conducted on the MDA-MB-231 cell line (Fig. 9) using an Alexa Fluor 647 anti-CALR antibody. In this experiment, 30 min, 3 h, 6 h and 24 h were the time points for monitoring the fraction of cells expressing CALR on their surface.
This is different from the release kinetics of ATP, which was released from the cytosol of the cells with compromised plasma membranes almost immediately after the treatment with our peptides. […]

[2] = tested on: calreticulin (CALR) on 4T1 cells; assay: CALR exposure on the cell surface, fluorescence microscopy; format: cell-based, murine; details: 4T1 monolayer; 8 and 16 μM; 24 h; Alexa Fluor 647 anti-CALR antibody, normalized to non-treated cells; n=2
Experimental: We performed fluorescence microscopy using an Alexa Fluor 647 anti-CALR antibody for quantifying the CALR exposure on the surface of cells. Confluent monolayer 4T1, HeLa, HepG2 and MDA-MB-231 cell cultures were incubated with GS and GS-derived peptides for 24 h followed by fixation, staining with the antibody and microscopic observation. Using the images, we calculated the total levels of the fluorescence signal per cell in each sample. […] To examine the time dependence of the CALR exposure, cytofluorimetric experiments were conducted on the MDA-MB-231 cell line (Fig. 9) using an Alexa Fluor 647 anti-CALR antibody. In this experiment, 30 min, 3 h, 6 h and 24 h were the time points for monitoring the fraction of cells expressing CALR on their surface.
The cells were seeded (10 000 cells per well for 4T1; 20 000 cells per well for HeLa and MDA-MB-231; 30 000 cells per well for HepG2) in 200 μL of appropriate medium in a 96-well black-wall transparent-bottom plate (6055302, Revvity). After 24 h incubation, the medium was aspired and 100 μL of fresh medium was added. The compounds (64, 32, 16 and 8 μM for closed photoforms; 32, 16, 8 and 4 μM for open photoforms and GS) along with the negative (1% DMSO) control were prepared in DMEM and dispensed in 100 μL per well for 24 h. Then 50 μL of 20% paraformaldehyde (28908, Thermo Fisher) was added for 15 min for fixation. […]

SMILES: CC(C)C[C@@H]1NC(=O)[C@H](CCCN)NC(=O)[C@H](C(C)C)NC(=O)[C@@H]2CCCN2C(=O)[C@@H](Cc2ccccc2)NC(=O)[C@H](CC(C)C)NC(=O)[C@H](CCCN)NC(=O)[C@H](C(C)C)NC(=O)[C@@H]2CCCN2C(=O)[C@@H](Cc2ccccc2)NC1=O [Gramicidin S, gramicidin S] (cyclo(V[Orn]L[dF]PV[Orn]L[dF]P))
- incubation time after which all cells exposed CALR on their surface [1]: 3 h
- increase of CALR exposure [2]: 3 fold
